# Patent US20240217946A1, “ANTIDEPRESSANT AND ANXIOLYTIC SUBSTITUTED CINNAMAMIDE COMPOUND” (TASLY PHARMACEUTICAL GROUP CO., LTD., priority 2021, published 2024)
# Entries after “also recorded” stand apart in the source; their conditions may differ.
# Legend:
# [1] = tested on: pyramidal neurons in prefrontal PrL brain area; test: Brain slice electrophysiology, sEPSC of mPFC pyramidal neurons; type: cell-based, mice; conditions: 10 nM, 10 μM, 150 μM; for sEPSC distribution frequency: concentration-dependent, significant at 150 μM
# Excerpt: 2) Brain Slice Electrophysiological Experiment: For Detecting Effect of Compound M2 on mPFC Excitatory Synaptic Transmission • Animal: neonatal mice C57 BL/6J (20-30 days). • Instrument: vibratome (Leica), brain slice electrophysiological system (Axon). • Brain slice electrophysiological experiment method • SEPSC experiment method: Neonatal C57 mice were anesthetized and then perfused with artificial cerebrospinal fluid (ACSF). After decapitation, brain tissue was taken quickly and sliced by vibratome, with a thickness of a brain slice being 300 μm. After the brain slices were incubated at 28 °C for 1 h, whole-cell recordings of mPFC pyramidal neurons were made using a voltage clamp (−70 mV) through a brain slice electrophysiological system. The baseline recording time was 6 min, and then a drug to be tested was added through a perfusion system (the drug was dissolved using ACSF), and the recording time after adding the drug was 6-10 min. Recorded data was analyzed using Minianalysis software, and effects of the drug to be tested on sEPSC frequency and amplitude of medial prefrontal pyramidal neurons in C57 mice were compared.
# All data analysis was done using spss data processing software, and data was expressed by Mean±s.e.m. One-way ANOVA was used to analyze the effect of compound M2 and the effect of compound M2 under the action of dopamine receptor antagonists on sEPSC current: and paired t test was used to analyze sEPSC experimental results. * was marked when p<0.05.
# During the experiment, 10 μM Bicuculine was added to the solution to block GABA receptor, so as to record sEPSC of pyramidal neurons. The experiment investigated effects of different concentrations of compound M2 on spontaneous excitatory postsynaptic […] (sEPSC) of pyramidal neurons in prefrontal PrL brain area, as shown in FIG. 2.
# C57 BL/6J male mice = test: Forced swimming experiment in mice; type: in vivo
# Excerpt: 1) Forced Swimming Experiment: Also Known as Despair Experiment, an Experiment Usually Used to Test Depression-Like Behavior of Mice
# • Animal: C57 BL/6J male mice (18-20 g)
# Intraperitoneal injection (i.p)
# mTOR signaling pathway = test: Western blot of prefrontal proteins after single administration; type: in vivo, mice; conditions: 30 mg/kg
# Experimental: 3) Western Blot: For Detecting Effect of Compound M2 on a Change in mPFC Protein Content • Animals: C57 BL/6J male mice (18-20 g), divided into four groups, i.e. the control group, fluoxetine group, compound M2 (30 mg/kg) group, and esketamine group. • Primary antibodies for experimental use
# 0.5 h/24 h after administration of C57 mice, brain tissue was sampled from the prefrontal brain area. After tissue samples were lysed and homogenized, quantification of proteins was performed using the BCA method, and changes in protein content in the prefrontal brain area 0.5 h/24 h after intraperitoneal administration of compound M2 were detected by steps of SDS-PAGE gel preparation, sample loading and electrophoresis, membrane transfer, sealing, primary antibody incubation, secondary antibody incubation, protein detection (development and fixation), etc.
# mice [2] = conditions: 10 mg/kg for 7 days; cited from earlier work
# mice [3] = conditions: mouse, in vivo; cited from earlier work
# mice [4] = conditions: 10 mg/kg continuously for 7 days; cited from earlier work
smiles,measurement,setting,value
NC(=O)/C=C/c1cc2c(c(C(F)(F)F)c1)OCO2 [Compound M2],sEPSC distribution amplitude,[1],did not have significant effect
same,sEPSC distribution frequency,[1],increased
same,sEPSC distribution frequency,[1]; listed as compound M2,significantly enhance
same,sEPSC distribution amplitude,[1]; listed as compound M2,does not have a significant effect
same,antidepressant-like effect,"C57 BL/6J male mice; 24 h after a single i.p. administration, fluoxetine 10 mg/kg, esketamine 10 mg/kg, M2 3-30 mg/kg",had antidepressant-like effect
same,immobility time of mice in forced swimming,"C57 BL/6J male mice; 24 h after single i.p. administration, dosage effect, significant at 30 mg/kg, 30 mg/kg",reduce the immobility time; also recorded: significantly reduced
same,medial prefrontal p-TrkB content,mTOR signaling pathway; 0.5 h after administration,increased
same,medial prefrontal p-mTOR content,mTOR signaling pathway; 0.5 h after administration,increased
same,"total content (mTOR, TrkB)",mTOR signaling pathway; 0.5 h after administration,remaining unchanged
same,content of medial prefrontal synaptogenesis-related protein PSD95,mTOR signaling pathway; 24 h after single administration,significantly increased
CC(C)CNC(=O)/C=C/c1cc2c(c(C(F)(F)F)c1)OCO2 [Compound I-5],immobility time of tail suspension in mice,mice [2],significantly shorten the immobility time
same,immobility time of forced swimming in mice,mice [3],significantly shorten the immobility time
same,"reserpine-induced body temperature decrease and akinesia in mice, degree of eye closure",mice [4],significantly antagonizing
